Results: ChEMBL document CHEMBL1201862, “PubChem BioAssay data set” (2004)
Active and inactive are the calls of the source. For most assays here, no stated cut-off is given here; in the data, actives have a measured IC50 and inactives only a lower limit.

Experiments:
[1] = biological target: T1, Tyrosine-protein phosphatase non-receptor type 7 (Homo sapiens, UniProt P35236); format: functional
T1 sequence (P35236 whole entry): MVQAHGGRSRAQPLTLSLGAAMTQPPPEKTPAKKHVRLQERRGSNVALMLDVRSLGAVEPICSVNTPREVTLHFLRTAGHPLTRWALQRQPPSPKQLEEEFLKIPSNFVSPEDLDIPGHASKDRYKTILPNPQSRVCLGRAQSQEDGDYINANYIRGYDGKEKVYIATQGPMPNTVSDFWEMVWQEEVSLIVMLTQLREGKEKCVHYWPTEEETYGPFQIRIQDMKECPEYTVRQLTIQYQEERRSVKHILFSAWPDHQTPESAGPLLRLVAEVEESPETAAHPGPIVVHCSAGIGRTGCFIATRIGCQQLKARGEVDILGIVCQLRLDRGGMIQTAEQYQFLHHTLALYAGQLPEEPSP

[2] = biological target: Glyceraldehyde-3-phosphate dehydrogenase (Homo sapiens, UniProt P04406)
Sequence of Glyceraldehyde-3-phosphate dehydrogenase (P04406 whole entry): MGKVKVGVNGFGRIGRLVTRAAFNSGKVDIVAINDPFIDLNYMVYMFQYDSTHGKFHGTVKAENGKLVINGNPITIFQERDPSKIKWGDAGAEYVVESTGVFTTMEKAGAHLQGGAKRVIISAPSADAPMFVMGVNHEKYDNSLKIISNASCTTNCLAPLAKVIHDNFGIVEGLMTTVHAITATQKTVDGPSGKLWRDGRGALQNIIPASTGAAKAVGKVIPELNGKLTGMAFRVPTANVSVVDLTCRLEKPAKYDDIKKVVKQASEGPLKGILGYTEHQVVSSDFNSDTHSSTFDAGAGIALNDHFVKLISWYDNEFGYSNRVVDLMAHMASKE

[3] = biological target: T2, Dual specificity protein phosphatase 6 (Rattus norvegicus, UniProt Q64346)
T2 sequence (Q64346 whole entry): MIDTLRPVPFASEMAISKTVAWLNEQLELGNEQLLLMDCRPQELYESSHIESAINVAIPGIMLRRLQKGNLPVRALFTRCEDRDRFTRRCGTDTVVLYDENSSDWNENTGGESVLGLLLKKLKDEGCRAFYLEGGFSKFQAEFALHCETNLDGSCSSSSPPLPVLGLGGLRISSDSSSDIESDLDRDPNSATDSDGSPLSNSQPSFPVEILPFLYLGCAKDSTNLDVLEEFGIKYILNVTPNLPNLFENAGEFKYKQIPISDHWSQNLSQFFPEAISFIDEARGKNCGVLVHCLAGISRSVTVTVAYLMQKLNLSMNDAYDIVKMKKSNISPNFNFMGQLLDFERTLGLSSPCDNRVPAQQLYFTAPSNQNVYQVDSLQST

[4] = biological target: T2, Dual specificity protein phosphatase 6; format: functional
[5] = biological target: T3, Ubiquitin-conjugating enzyme E2 N (Homo sapiens, UniProt P61088); format: functional;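 further: Dose-response confirmation in a TR-FRET assay detecting UBC13-driven polyubiquitin chain formation, inhibition measured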
T3 sequence (P61088 whole entry): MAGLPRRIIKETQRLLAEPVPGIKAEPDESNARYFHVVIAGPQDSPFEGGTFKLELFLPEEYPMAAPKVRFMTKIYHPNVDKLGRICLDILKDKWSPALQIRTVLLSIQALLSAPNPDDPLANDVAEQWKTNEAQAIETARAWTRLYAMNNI

[6] = biological target: Delta-type opioid receptor (Homo sapiens, UniProt P41143); assay: Counterscreen for agonists of heterodimerization of the mu 1 (OPRM1) and delta 1 (OPRD1) opioid receptors: Luminescence-based cell-based high throughput dose response assay to identify agonists of OPRD1 homodimerization. [Related pubchem assays (depositor defined):AID504326, AID504355, AID504692, AID504904, AID504905]; format: functional
Sequence of Delta-type opioid receptor (P41143 whole entry): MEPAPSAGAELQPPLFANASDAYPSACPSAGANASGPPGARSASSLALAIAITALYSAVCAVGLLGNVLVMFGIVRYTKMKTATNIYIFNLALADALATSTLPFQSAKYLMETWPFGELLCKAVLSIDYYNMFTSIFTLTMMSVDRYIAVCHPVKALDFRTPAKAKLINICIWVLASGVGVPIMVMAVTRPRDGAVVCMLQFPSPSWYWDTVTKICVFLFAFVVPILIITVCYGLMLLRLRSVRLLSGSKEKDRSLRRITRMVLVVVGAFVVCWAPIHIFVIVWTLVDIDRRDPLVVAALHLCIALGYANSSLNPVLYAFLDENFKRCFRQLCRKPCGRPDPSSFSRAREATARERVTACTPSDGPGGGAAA

Mu-type opioid receptor = Mu-type opioid receptor (Homo sapiens, UniProt P35372); assay: Counterscreen for agonists of heterodimerization of the mu 1 (OPRM1) and delta 1 (OPRD1) opioid receptors: Luminescence-based cell-based high throughput dose response assay to identify agonists of OPRM1 homodimerization.; format: functional;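 further: U2OS cells expressing OPRM1 and beta-arrestin as split beta-galactosidase partners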
Sequence of Mu-type opioid receptor (P35372 whole entry): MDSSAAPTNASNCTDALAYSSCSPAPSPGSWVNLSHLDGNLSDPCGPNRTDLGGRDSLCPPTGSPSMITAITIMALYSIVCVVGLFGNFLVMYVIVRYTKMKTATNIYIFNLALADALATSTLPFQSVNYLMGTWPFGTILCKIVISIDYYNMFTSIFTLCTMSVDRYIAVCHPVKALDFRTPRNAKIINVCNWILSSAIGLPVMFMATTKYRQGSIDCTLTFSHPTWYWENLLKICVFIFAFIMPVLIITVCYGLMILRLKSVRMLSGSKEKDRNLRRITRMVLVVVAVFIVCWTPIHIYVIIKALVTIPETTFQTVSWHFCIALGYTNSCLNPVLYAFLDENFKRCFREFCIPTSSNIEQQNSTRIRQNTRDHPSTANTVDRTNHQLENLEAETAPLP

[7] = biological target: 5-hydroxytryptamine receptor 5A (Homo sapiens, UniProt P47898); assay: Counterscreen for agonists of OPRM1-OPRD1 heterodimerization: luminescence-based cell-based high throughput dose response assay to identify agonists of 5-hydroxytryptamine (serotonin) 5A receptor (HTR5A). [Related pubchem assays (depositor defined):AID504326, AID504355, AID504692, AID504904, AID504905]; format: functional
Sequence of 5-hydroxytryptamine receptor 5A (P47898 whole entry): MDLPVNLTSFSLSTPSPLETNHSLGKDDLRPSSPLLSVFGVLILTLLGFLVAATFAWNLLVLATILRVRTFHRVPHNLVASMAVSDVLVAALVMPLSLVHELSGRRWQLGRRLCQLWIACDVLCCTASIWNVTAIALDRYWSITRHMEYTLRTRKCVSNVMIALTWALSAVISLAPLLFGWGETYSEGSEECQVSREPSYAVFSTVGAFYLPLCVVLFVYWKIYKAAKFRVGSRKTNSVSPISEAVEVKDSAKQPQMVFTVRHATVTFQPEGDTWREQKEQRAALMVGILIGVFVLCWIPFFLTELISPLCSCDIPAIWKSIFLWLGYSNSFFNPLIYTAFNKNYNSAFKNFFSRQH

[8] = biological target: T4, Short transient receptor potential channel 4 (Mus musculus, UniProt Q9QUQ5); assay: mouse TRPC4 channel activators, dose response, cell-based, HEK293 TRPC4/mu-opioid, Fluo-4 calcium (AID 434937); format: functional
T4 sequence (Q9QUQ5 whole entry): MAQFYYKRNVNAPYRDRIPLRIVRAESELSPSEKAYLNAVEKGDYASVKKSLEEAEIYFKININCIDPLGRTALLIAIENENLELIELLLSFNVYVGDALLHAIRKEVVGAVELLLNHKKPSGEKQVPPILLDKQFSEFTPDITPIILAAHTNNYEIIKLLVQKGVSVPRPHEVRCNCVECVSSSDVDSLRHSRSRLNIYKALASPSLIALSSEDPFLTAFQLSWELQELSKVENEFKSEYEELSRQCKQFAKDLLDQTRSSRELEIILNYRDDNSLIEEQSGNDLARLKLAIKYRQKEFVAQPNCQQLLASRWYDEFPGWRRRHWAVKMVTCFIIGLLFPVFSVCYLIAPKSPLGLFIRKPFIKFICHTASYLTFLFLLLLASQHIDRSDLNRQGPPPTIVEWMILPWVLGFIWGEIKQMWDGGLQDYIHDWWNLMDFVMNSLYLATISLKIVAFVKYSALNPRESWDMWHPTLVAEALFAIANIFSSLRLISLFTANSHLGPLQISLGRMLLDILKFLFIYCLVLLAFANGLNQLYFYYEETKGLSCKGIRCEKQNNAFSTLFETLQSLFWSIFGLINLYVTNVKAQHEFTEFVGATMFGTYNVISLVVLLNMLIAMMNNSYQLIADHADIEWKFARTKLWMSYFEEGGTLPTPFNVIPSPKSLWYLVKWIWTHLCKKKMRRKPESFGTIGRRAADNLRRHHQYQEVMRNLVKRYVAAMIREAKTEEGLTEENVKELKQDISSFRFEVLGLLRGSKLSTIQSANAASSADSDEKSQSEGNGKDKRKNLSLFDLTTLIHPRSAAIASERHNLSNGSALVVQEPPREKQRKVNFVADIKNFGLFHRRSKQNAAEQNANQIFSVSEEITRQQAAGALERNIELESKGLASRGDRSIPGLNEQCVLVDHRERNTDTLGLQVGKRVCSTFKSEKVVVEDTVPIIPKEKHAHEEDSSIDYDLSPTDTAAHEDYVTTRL

| SMILES | IC50 [1] | IC50 [2] | IC50 [3] | IC50 [4] | IC50 [5] | EC50 [6] | EC50 (Mu-type opioid receptor) | EC50 [7] | EC50 [8] |
| --- | --- | --- | --- | --- | --- | --- | --- | --- | --- |
| COCCCNc1nc(=O)n(-c2ccc(F)cc2)c(=O)[nH]1 | > 100 µM (not active) | > 100 µM (not active) | > 100 µM (inactive) | > 100 µM (inactive) | – | – | – | – | – |
| Cn1c(=O)n(CC(N)=O)c(=O)n(-c2ccccc2)c1=O | > 100 µM (not active) | > 100 µM (not active) | > 100 µM (inactive) | > 100 µM (inactive) | – | – | – | – | – |

Second part, the molecule after the results:

| IC50 [1] | IC50 [2] | IC50 [3] | IC50 [4] | IC50 [5] | EC50 [6] | EC50 (Mu-type opioid receptor) | EC50 [7] | EC50 [8] | SMILES |
| --- | --- | --- | --- | --- | --- | --- | --- | --- | --- |
| > 100 µM (not active) | > 100 µM (not active) | > 100 µM (inactive) | > 100 µM (inactive) | – | – | – | – | – | Clc1cccc(Cl)c1COc1nnc(-c2cccs2)c(-c2cccs2)n1 |
| – | – | – | – | > 20 µM (inactive) | > 92.5 µM (inactive) | 10.9 µM (inactive) | > 92.5 µM (inactive) | – | CC[C@@H](C)[C@@H]1CN([C@@H](CN2CCC[C@H]2CN2C(N)=NC[C@H]2C(C)C)C(C)C)C(=N)N1CCc1ccc(Cl)c(Cl)c1 |
| – | – | – | – | – | > 92.4 µM (inactive) | > 92.4 µM (inactive) | > 92.4 µM (inactive) | 944 nM (active) | CN(C)c1ccc(C(CNC(=O)Cc2cccc3ccccc23)N(C)C)cc1 (stereo not given) |
